Measurements published in patent US20170239201A1, “GLYCOLIC ACID ENHANCES SPERM MOBILITY” (MAX-PLANCK-GESELLSCHAT ZUR FORDERUNG DER WISSENSCHAFTEN E.V., priority 2014, published 2017).

Legend:
mouse sperm = assay: Mouse sperm motility and progressivity (CASA system, Hamilton-Thorne); type: cell-based; conditions: for difference in treated mouse sperm compared to controls: motility/progressivity
Protocol: Extract epididymis and open them in CPA medium (18% Raffinose and 3% Low fat milk powder). Let spermatozoids swim out for 5 min at room temperature.
For each condition, take 4 μl of mouse sperm in CPA and place in 196 μl of HTF medium from the incubator (at 37° C.). Let it incubate 5 min. in the 37° C. incubator, add substances to the HTF medium (see formulation below) and incubate for different times.
At each time point, fill a Leja-Slide with 25 μl of the HTF buffer containing the diluted sperm and place in the sperm counting machine (Hamilton-Thorne, USA). The machine takes 10 pictures per samples and analyses the different parameters (motility, progressivity,etc. . . . ). Sperm motility analysis was done blindly. Glycolic acid and […] were given to the technician from the facility as Substance 1 and Substance 2, only later did […] get to know which belong to what compound.
(§1) The examples tested the effect of 10 to 30 mM of glycolic acid and D-lactate on mouse sperm motility and progressivity or on bull motility. For this, epididymic mouse sperm from two strains (WT and DJ-1) or ejaculated frozen bull sperm was obtained. Sperm from each individual was divided and treated either with glycolic acid or with the vehicle for up to 90 minutes. Mouse sperm motility and progressivity was determined with the help of an automatized machine (CASA system, Hamilton-Thorne Research, http://www.hamiltonthorne.com/index.php/products/casa-products/sperm-analysis-systems-research) that uses high frequency photo images and image analysis to analyze these parameters. Frozen ejaculated bull sperm motility was assessed by an experienced technician. Mouse sperm from WT and DJ-1 mice was divided by the software into motile and non-motile sperm according to standardized parameters and results are given as percentages of the total population identified as motile sperm (FIG. 1-4). Sperm progressivity alone was analyzed only on the mouse sperm, as only the software from the CASA system is sensitive enough to make this analysis and this machine can only analyze mouse sperm. Bull sperm was divided into progressive motile, motile (the sum of progressive motile and motile on the spot) and the rest (FIGS. 5, 6 and 7).

bull sperm = assay: Bull sperm motility and progressive motility, defrosted sperm, assessed by technician; type: cell-based
Protocol: Frozen bull sperm was defrosted in a warm bath and centrifuged. The supernatant was removed and the sperms were resuspended in HTF-like medium alone or with glycolic acid. Sperms were incubated with the 10, 20 and 30 mM glycolic acid for 10 min. before the measurements began. Measurements were performed by an experienced technician from the urology department.
as §1

human sperm = assay: Human sperm motility, fresh and defrosted sperm; type: cell-based; conditions: 30 and 60 mM, significant (p<0.05) over whole experiment
Protocol: Human sperm was collected from donors after ejaculation and used on the same day. Frozen human sperm was defrosted in a warm bath before starting the experiments. The regional ethical committee approved sample collection and use of human sperm. Both fresh and frozen human sperm were centrifuged, the supernatant was removed and the sperms were resuspended in HTF-like medium alone or with glycolic acid. Sperms were incubated with the 30 and 60 mM glycolic acid for 10 min before the measurements began. Measurements were performed by an experienced technician from the urology department.
(§2) This enhancement can be observed in human sperm, both defrosted and fresh, and defrosted bull sperm. Two-way ANOVA analysis was used (much more restrictive than a t-Test). * means p<0.05, **p<0.01, ***p<0.001 and […]. […] Both sperm motility and mitochondrial measurements are normalized to a control at time-point 0.

[1] = system: sperm mitochondrial membrane potential; assay: Mitochondrial membrane potential of sperm (JC-1 and FACS sorting); type: cell-based; conditions: JC-1, FACS; normalized to control at time-point 0; FIG. 8
Description: as §2

[2] = estimated; cited from earlier work
[3] = 10 mM, 30 minutes after application, average stated for mouse and bull sperm

| SMILES | difference in treated mouse sperm compared to controls (mouse sperm) | increase in sperm motility (percentage of motile spermatozoids) (bull sperm; [3]) [%] | increase in sperm progressivity (percentage of motile spermatozoids that move forward) (bull sperm; [3]) [%] | bull sperm motility and progressivity at higher concentrations (bull sperm; 20 and 30 mM compared to 10 mM glycolic acid) | time over which the enhancement is sustained (bull sperm; both species) | sperm mobility, in particular sperm progressivity, at higher concentrations (bull sperm; concentrations up to 60 mM, data not shown) | sperm motility (FIG. 8), normalized to control at time-point 0 (bull sperm; defrosted bull sperm, significant (p<0.05) over whole experiment) | sperm motility (FIG. 8), normalized to control at time-point 0 (human sperm) | increase in sperm motility (percentage of motile spermatozoids) (mouse sperm; [3]) [%] | increase in sperm progressivity (percentage of motile spermatozoids that move forward) (mouse sperm; [3]) [%] | time over which the enhancement is sustained (mouse sperm; both species) | mitochondrial membrane potential [1] | minimum toxic dose [2] |
| --- | --- | --- | --- | --- | --- | --- | --- | --- | --- | --- | --- | --- | --- |
| C[C@@H](O)C(=O)O [D-lactate, reference compound] | not | – | – | – | – | – | – | – | – | – | – | – | – |
| O=C(O)CO [Glycolic acid, 2-hydroxyethanoic acid] | significance difference | 19 | 28 | further increase | up to 90 min | increase | enhances sperm motility | enhances sperm motility | 19 | 28 | up to 90 min | did not increase | – |
| OCCOCCO [diethylene glycol] | – | – | – | – | – | – | – | – | – | – | – | – | 0.14 mg glycolic acid per kg of body weight |
